The text below walks through data of publication PMC2678990, “Stilbene glycosides are natural product inhibitors of FGF-2-induced angiogenesis” (BMC Cell Biology, 2009).

A word on the IC50: it is the point on the concentration scale where inhibition reaches its midpoint. High values mean a need for much substance, low ones inhibition by little substance.

In data set [1] the test system is BAEC. Kind of data set: FGF-2-induced migration in wound healing model. Particulars: Bos taurus, FGF-2 25 ng/ml, 18 h. In kind it is cell-based, bovine. The method, then: Cells (6 × 10^4/ml) were added to a Thermanox cover slip in a 24-well plate in complete medium and incubated for 24–48 h. When confluent, the medium was replaced with DMEM containing 0.1% FCS and incubated for a further 48 h. Cover slips were washed (PBS, × 3), wounded with a sterile razor to produce a straight edged cut and washed in PBS to remove dislodged cells. Cover slips were added to a fresh 24-well plate in 0.1% FCS and incubated with FGF-2 (or other growth factors) and a range of concentrations of test compounds for 18 h. Under these conditions, there was negligible proliferation but measurable migration. Slides were fixed in ethanol (100%), stained with methylene blue and photographed. For each slide, 10 fields of view (2 mm × 1.45 mm) were counted at random. Each experiment was performed in triplicate and at least twice.

Data set [2] has as its system BAEC. Kind of data set: FGF-2-induced chemotaxis, Boyden chamber assay. The class given is cell-based, bovine. The settings on record: Bos taurus, 6 h, FGF-2 25 ng/ml. On the procedure:
The effect of compounds 1 and 2 on cell migration was examined in vitro using a modified Boyden chamber system with 8.0 μm pore polycarbonate filter inserts (TSL, UK). The filter was coated overnight with 0.1%w/v gelatine, and air-dried. Cells (1 × 10^5) were placed in the upper part of the filter and test compounds at different concentrations with and without growth factors were added to the lower part in SPM. Cells were incubated at 37°C for 6 h and the filter removed and the upper side containing non migrated cells wiped and rinsed. The filters were fixed (4% paraformaldehyde), and stained (Geimsa) and cell migration in duplicate wells was determined by counting cell numbers on the lower surface. Experiments were performed in triplicate and at least two times.

The subject of data set [3] is HDMEC. As to the kind of experiment: VEGF-induced proliferation. The settings on record: 72 h, NS = inhibition less than 50%. In kind it is cell-based, human. The method, then:
Cells were seeded in triplicate at a concentration of 6.0 × 10^5/ml, in 2 ml of complete medium in 6-well plates. […] Growth factors, FGF-2 (25 ng/ml), EGF (75 ng/ml) and VEGF (10 ng/ml) and test compounds at different concentration were added and cells incubated for a further 72 h. Control wells were treated with 5 μl DMSO. Concentration ranges of test compounds and pre-incubation times were based on pilot studies. After 72 h, cells were washed in PBS, detached in 0.05%w/v trypsin in PBS, and counted on a Coulter counter (Coulter Electronics, Hialeah, FL) set to a threshold of 30 μm. Experiments were performed in triplicate and repeated at least twice.

For data set [4], the system named is BAEC. As to the kind of experiment: Regression of established tubular networks. In kind it is cell-based, bovine. Particulars: Bos taurus, established FGF-2 tubular network, 24 h. The method, then:
Tube regression under the influence of the test compounds was also investigated. Cell suspensions were mixed with Matrigel supplemented with FGF-2 (25 ng/ml) in 15% FCS as described above.

In another data set the test system is T1, FGFR-2 (Homo sapiens).
T1 construct: coated overnight with 2 μg/ml of the soluble receptors (FGFR-1 or -2 and VEGFR-1 or -2); purchased Santa Cruz Biotechnology (receptor); R&D Systems (FGF-2)
T1 sequence (P09038 143-288): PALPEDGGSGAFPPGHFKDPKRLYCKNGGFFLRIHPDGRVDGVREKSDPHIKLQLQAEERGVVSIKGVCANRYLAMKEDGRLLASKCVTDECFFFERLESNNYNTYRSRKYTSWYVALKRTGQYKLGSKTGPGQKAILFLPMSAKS
As to the kind of experiment: ELISA binding assay of FGF-2 to soluble receptor. Particulars: added together with FGF-2, no pre-incubation. The method, then:
(§1) Figure 8 The effect of increasing concentrations of compound 1 on FGF-2 binding to FGFR-1 and -2. The soluble receptor was coated onto the wells of a 96-well plate and blocked with 1% BSA. […] After 2 h the plate was washed and incubated with antibodies to the growth factor, then peroxidase-conjugated IgG for 45 min. Peroxidase substrate was added and the absorbance read at 405 nm (se below for detail).
(§2) Competition between growth factors, their cell surface receptors and test compounds was assessed in an ELISA assay as described by. A 96-well plate was coated overnight with 2 μg/ml of the soluble receptors (FGFR-1 or -2 and VEGFR-1 or -2) and blocked with 1% BSA in PBS containing 0.05% Tween-20. […] The plate was washed (× 3 with PBS-Tween-20) and incubated with anti-FGF-2 IgG (1:500 in PBS-Tween-20) or anti-VEGF IgG (!:250 in PBS-Tween-20) for 45 min, washed and incubated with horseradish peroxidase conjugated goat anti-IgG (Santa Cruz, 1:1000) for a further 45 min. After washing (× 3), ABTS peroxidase substrate was added and the absorbance read at 405 nm. IC50 values were calculated from the data using the EZ-Fit enzyme kinetic software (Perella Scientific Inc., Amherst, USA).

In a further data set the test system is T2, FGFR-1 (Homo sapiens).
T2 construct: coated overnight with 2 μg/ml of the soluble receptors (FGFR-1 or -2 and VEGFR-1 or -2); purchased Santa Cruz Biotechnology (receptor); R&D Systems (FGF-2)
T2 sequence (P09038 143-288): as above
Kind of data set: ELISA binding assay of FGF-2 to soluble receptor. Particulars: added together with FGF-2, no pre-incubation. On the procedure: as §1, §2
(In an ELISA, binding on a coated surface is turned into a signal by an enzyme label.)

Data set [5] deals with HDMEC. Kind of data set: Toxicity: MTT and active caspase-3 assays. The class given is cell-based, human. The method, then: Stilbene glycoside toxicity was determined using the MTT and active caspase-3 assays. BAECs or HDMECs (7.5 × 10^3) were seeded in a 96 well plate and incubated for 4 h to allow cell adhesion. The test compound or staurosporine (1 μM), an inducer of active caspase-3 and therefore of apoptosis was added to the wells. Control cells were treated with PBS and the plate was incubated at room temperature for 72 hours. MTT reagent (10 μl) was added followed by incubation at room temperature for 2–4 h. When a purple precipitate was visible, detergent reagent (100 μl) was added to the plates and incubated at room temperature for 2 h in the dark. Absorbance was measured at 570 nm using a microplate reader.
In the apoptosis assay, HDMECs or BAEC (4 × 10^4/ml) in complete medium were added to the chambers slide and allowed to adhere for 24 h. The test compound (X μM) or staurosporine (1 μM) were added to all wells except control (PBS) and incubated for 24 hours. Wells treated with staurosporine were immediately washed (PBS) and fixed (4% paraformaldehyde) when cell morphology became round (2–4 h). After washing and fixing, cells were permeablized (0.1% Triton X-100; 10 min), washed (× 5~5 min each), air dried and blocked with 1% BSA in 1:50 TBS-Tween for 1 h at room temperature. Cells were incubated with goat anti-active caspase-3 (R&D system, UK; 1% BSA in TBS-Tween) for 1 h. […]

`COc1cc(C=Cc2ccc(O)cc2)cc(OC2OC(COC3OC(C)C(O)C(O)C3O)C(O)C(O)C2OC2OC(C)C(O)C(O)C2O)c1` (centres unmarked) [Compound 1]: the IC50 in the data set on BAEC [1] was 41.8 ± 0.95 µM; in the data set on BAEC [2], 30.1 ± 0.85 µM; in the data set with HDMEC [3] (Homo sapiens), over 71.5 µM; in the data set with BAEC [4], 40 ± 0.2 µM. The “VEGF-induced proliferation, IC50” value in the data set on HDMEC [3] is “no significant inhibitory effect”. The “Effect on FGF-2 binding to FGFR-2 when added with FGF-2” value in the data set with FGFR-2 (Homo sapiens) is listed as “no significant inhibitory effect”. Also, the “Effect on FGF-2 binding to FGFR-1 when added with FGF-2” value with FGFR-1 (Homo sapiens) was “no significant inhibitory effect”. For the same compound, in the data set on HDMEC [5], the Cytotoxic effect result was “no significant cytotoxic effect”.
